IC50 data for 32 molecules are collected here from US7285556B2, “Thienopyrimidine-based inhibitors of the src family” (Board of Regents, The University of Texas Systems, priority 2000, dated 2007).

Where two headings read alike, the source gives them in different places.

Test [1] deals with T1, Recombinant human Src (Homo sapiens, UniProt P12931).
T1 construct: made in house; host or cells: baculovirus-insect cell system
Description: Src tyrosine kinase activity, poly E4Y and 32P-ATP. It is filed as biochemical. An outline of the steps:
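Recombinant GST-Csk (E. coli) or baculovirus-expressed human Src assayed on poly E4Y in 0.15 M EPPS-NaOH pH 8.0, 6 mM MgCl2, 0.2 mM γ32P-ATP, 10% glycerol, 0.1% Triton X-100. Read-out is 32P incorporation into poly E4Y; for ATP variation (0–250 μM), poly E4Y held at 150 μg/ml.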

For test [2], the target named is T2, Csk (Homo sapiens, UniProt P41240).
T2 construct: GST (glutathione-S-transferase) (N); made in house; host or cells: E. coli (pGEX vector)
T2 sequence (P41240 whole entry, species assumed): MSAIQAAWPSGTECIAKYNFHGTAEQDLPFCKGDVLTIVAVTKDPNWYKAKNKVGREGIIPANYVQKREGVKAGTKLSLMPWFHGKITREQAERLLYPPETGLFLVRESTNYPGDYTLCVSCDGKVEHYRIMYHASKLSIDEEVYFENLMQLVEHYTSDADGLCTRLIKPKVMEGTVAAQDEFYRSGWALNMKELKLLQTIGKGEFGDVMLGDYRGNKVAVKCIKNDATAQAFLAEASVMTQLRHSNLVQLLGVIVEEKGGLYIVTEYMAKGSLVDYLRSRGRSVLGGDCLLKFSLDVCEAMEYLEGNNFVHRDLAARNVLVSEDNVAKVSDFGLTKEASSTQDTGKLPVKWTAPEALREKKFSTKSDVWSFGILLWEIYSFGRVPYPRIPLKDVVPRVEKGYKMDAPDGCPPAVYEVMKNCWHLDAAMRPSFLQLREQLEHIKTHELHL
In words: Csk tyrosine kinase activity, poly E4Y and 32P-ATP. It is filed as biochemical. The method, then:
Recombinant human Src was expressed using the baculovirus-insect cell system and purified as published (Budde et al., 1993 and 2000). Recombinant Csk and the FGF receptor (FGFr) were expressed as glutathione-S-transferase fusion proteins using the pGEX expression vector and E. coli, and purified as described (Sun & Budde, 1995).
The tyrosine kinase activity of Src, Csk and FGFr was determined using poly E4Y and ^32P-ATP. Briefly, enzymes were assayed in a reaction mixture consisting of 0.15 M EPPS-NaOH (pH 8.0) with 6 mM MgCl2, 0.2 mM γ^32P-ATP (0.2-0.4 mCi/μmol), 10% glycerol, 0.1% Triton X-100, and poly E4Y. Poly E4Y is a synthetic peptide whose phosphorylation is measured in this assay by the addition of the radioactively labeled phosphate from the ATP (Budde et al., 1995). […] When ATP was varied (0, 50, 100 and 250 μM), poly E4Y was kept constant at 150 μg/ml.

Where [3] appears, read: Table 2, read-out: Src IC50 (especially good inhibitors of Src).
The mark [4] stands for this setting: read-out: IC50 (preferred compounds for treatment of Src family-related disease).
Where [5] appears, read: screening assay, 50 μg/ml poly E4Y, 0.2 mM 32P-ATP.
Setting [6] is: screening assay, 50 μg/ml poly E4Y, 0.2 mM 32P-ATP, read-out: Src IC50.

T1 sequence (P12931 whole entry): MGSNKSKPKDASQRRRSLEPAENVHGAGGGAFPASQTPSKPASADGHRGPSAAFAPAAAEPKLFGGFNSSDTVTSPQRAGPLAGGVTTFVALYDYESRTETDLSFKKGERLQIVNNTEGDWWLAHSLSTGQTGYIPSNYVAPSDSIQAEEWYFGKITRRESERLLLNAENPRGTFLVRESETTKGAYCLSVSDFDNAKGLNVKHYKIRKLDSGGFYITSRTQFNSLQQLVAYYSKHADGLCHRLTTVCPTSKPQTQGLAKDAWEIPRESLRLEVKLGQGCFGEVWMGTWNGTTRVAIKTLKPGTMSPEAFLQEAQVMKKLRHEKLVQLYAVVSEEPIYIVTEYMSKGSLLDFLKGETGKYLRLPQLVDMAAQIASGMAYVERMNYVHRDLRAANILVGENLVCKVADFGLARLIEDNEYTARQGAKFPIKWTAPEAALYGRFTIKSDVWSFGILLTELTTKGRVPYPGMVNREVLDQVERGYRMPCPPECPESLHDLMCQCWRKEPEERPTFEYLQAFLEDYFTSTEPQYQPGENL

A word on the IC50: it is the point on the concentration scale where inhibition reaches its midpoint. With `Cc1csc2c(NN=Cc3ccccc3)ncnc12` [Compound 7, Benzaldehyde(7-methylthieno[3,2-d]pyrimidin-4-yl)hydrazone], the concentration for half-maximal inhibition (IC50) in test [1] (setting [3]) was at most 2000 nM; in test [1] (setting [4]), under 2000 nM; in test [2] (setting [5]) it was over 186 µM.

As to `COc1ccc(C=NNc2ncnc3c(C)csc23)cc1` [Compound 14, 4-Methoxybenzaldehyde(7-methylthieno[3,2-d]pyrimidin-4-yl)hydrazone], the concentration for half-maximal inhibition (IC50) in test [1] (setting [3]) was at most 2000 nM; in test [1] (setting [4]), under 2000 nM; in test [2] (setting [5]), over 168 µM.

With `Cc1csc2c(NN=Cc3ccncc3)ncnc12` [Compound 16, 4-Pyridinecarboxaldehyde(7-methylthieno[3,2-d]pyrimidin-4-yl)hydrazone], the IC50 in test [1] (setting [3]) was at most 2000 nM; in test [1] (setting [4]), under 2000 nM; in test [2] (setting [5]), over 186 µM.

Take `COc1ccc(C=NNc2ncnc3c(C)csc23)cc1OC` [Compound 17, 3,4-Dimethoxybenzaldehyde(7-methylthieno[3,2-d]pyrimidin-4-yl)hydrazone]: the values for the IC50 in test [1] (setting [3]), in test [1] (setting [4]) and in test [2] (setting [5]) were at most 2000 nM, under 2000 nM and over 152 µM, respectively.

In the case of `COc1cc(C=NNc2ncnc3c(C)csc23)cc(OC)c1` [Compound 18, 3,5-Dimethoxybenzaldehyde(7-methylthieno[3,2-d]pyrimidin-4-yl)hydrazone], the IC50 in test [1] (setting [3]) was at most 2000 nM; in test [1] (setting [4]), under 2000 nM; in test [2] (setting [5]), over 152 µM.

As for `Cc1csc2c(NN=Cc3cccc(Cl)c3)ncnc12` [Compound 19, 3-Chlorobenzaldehyde(7-methylthieno[3,2-d]pyrimidin-4-yl)hydrazone], the IC50 in test [1] (setting [3]) is at most 2000 nM; in test [1] (setting [4]), under 2000 nM; in test [2] (setting [5]) it was over 165 µM.

With `Cc1csc2c(NN=Cc3ccc([N+](=O)[O-])cc3)ncnc12` [Compound 24], the IC50 in test [1] (setting [6]) was over 160000 nM; in test [2] (setting [5]), over 160 µM.

In the case of `Cc1csc2c(NN=Cc3ccc[nH]3)ncnc12` [Compound 30, 1H-Pyrrole-2-carboxaldehyde(7-methylthieno[3,2-d]pyrimidin-4-yl)hydrazone], the IC50 was at most 2000 nM in test [1] (setting [3]), under 2000 nM in test [1] (setting [4]) and over 194 µM in test [2] (setting [5]).

Turning to `Cc1csc2c(NN=Cc3ccco3)ncnc12` [Compound 31, 2-Furancarboxaldehyde(7-methylthieno[3,2-d]pyrimidin-4-yl)hydrazone], the IC50 in test [1] (setting [3]) is at most 2000 nM; in test [1] (setting [4]) it was under 2000 nM; in test [2] (setting [5]) it was over 194 µM.

In the case of `Cc1csc2c(NN=Cc3cccc(O)c3)ncnc12` [Compound 32, 3-Hydroxybenzaldehyde(7-methylthieno[3,2-d]pyrimidin-4-yl)hydrazone], the IC50 in test [1] (setting [3]) was at most 2000 nM; in test [1] (setting [4]), under 2000 nM; in test [2] (setting [5]), over 176 µM.

Regarding `Cc1csc2c(NN=Cc3ccsc3)ncnc12` [Compound 33, 3-Thiophenecarboxaldehyde(7-methylthieno[3,2-d]pyrimidin-4-yl)hydrazone], the IC50 is at most 2000 nM in test [1] (setting [3]), under 2000 nM in test [1] (setting [4]) and over 182 µM in test [2] (setting [5]).

For the molecule `Cc1csc2c(NN=Cc3ccccc3O)ncnc12` [Compound 44], the IC50 in test [1] (setting [6]) was over 176000 nM; in test [2] (setting [5]) it was over 176 µM.

Consider `CCOc1ccc(C=NNc2ncnc3c(C)csc23)cc1` [Compound 48, 4-Ethoxybenzaldehyde(7-methylthieno[3,2-d]pyrimidin-4-yl)hydrazone], for which the IC50 is at most 2000 nM in test [1] (setting [3]), under 2000 nM in test [1] (setting [4]) and over 160 µM in test [2] (setting [5]).

On to `CCOc1cc(C=NNc2ncnc3c(C)csc23)ccc1O` [Compound 50, 3-Ethoxy-4-hydroxybenzaldehyde(7-methylthieno[3,2-d]pyrimidin-4-yl)hydrazone], for which the values for the IC50 in test [1] (setting [3]), in test [1] (setting [4]) and in test [2] (setting [5]) were at most 2000 nM, under 2000 nM and over 152 µM, respectively.

As for `Cc1csc2c(NN=Cc3cccc(F)c3)ncnc12` [Compound 52, 3-Fluorobenzaldehyde(7-methylthieno[3,2-d]pyrimidin-4-yl)hydrazone], the IC50 in test [1] (setting [3]) is at most 2000 nM; in test [1] (setting [4]) it was under 2000 nM; in test [2] (setting [5]), over 175 µM.

In the case of `COc1cc(C=NNc2ncnc3c(C)csc23)ccc1O` [Compound 53, 4-Hydroxy-3-methoxybenzaldehyde(7-methylthieno[3,2-d]pyrimidin-4-yl)hydrazone], the IC50 in test [1] (setting [3]) was at most 2000 nM; in test [1] (setting [4]) it was under 2000 nM; in test [2] (setting [5]) it was over 159 µM.

As for `Fc1ccc(C=NNc2ncnc3cc(-c4ccccc4)sc23)cc1` [Compound 75, 4-Fluorobenzaldehyde(6-phenylthieno[3,2-d]pyrimidin-4-yl)hydrazone], the IC50 in test [1] (setting [3]) was at most 2000 nM; in test [1] (setting [4]), under 2000 nM; in test [2] (setting [5]) it was over 144 µM.

For `Cc1ccc(C=NNc2ncnc3c(C)csc23)s1` [Compound 120, 5-Methyl-2-thiophenecarboxaldehyde(7-methylthieno[3,2-d]pyrimidin-4-yl)hydrazone], the IC50 in test [1] (setting [3]) was at most 2000 nM; in test [1] (setting [4]) it was under 2000 nM; in test [2] (setting [5]), over 173 µM.

Consider `Cc1csc2c(NN=Cc3ccc(C#N)cc3)ncnc12` [Compound 121, 4-Cyanobenzaldehyde(7-methylthieno[3,2-d]pyrimidin-4-yl)hydrazone], for which the IC50 was at most 2000 nM in test [1] (setting [3]), under 2000 nM in test [1] (setting [4]) and over 170 µM in test [2] (setting [5]).

For the molecule `Cc1csc2c(NN=Cc3cccc(C#N)c3)ncnc12` [Compound 122, 3-Cyanobenzaldehyde(7-methylthieno[3,2-d]pyrimidin-4-yl)hydrazone], the figures for the IC50 in test [1] (setting [3]), in test [1] (setting [4]) and in test [2] (setting [5]) were at most 2000 nM, under 2000 nM and over 170 µM, respectively.

Regarding `COc1cccc(C=NNc2ncnc3c(C)csc23)c1` [Compound 137, 3-Methoxybenzaldehyde(7-methylthieno[3,2-d]pyrimidin-4-yl)hydrazone], the IC50 was at most 2000 nM in test [1] (setting [3]), under 2000 nM in test [1] (setting [4]) and over 168 µM in test [2] (setting [5]).

For the molecule `CCOc1cccc(C=NNc2ncnc3c(C)csc23)c1` [Compound 138, 3-Ethoxybenzaldehyde(7-methylthieno[3,2-d]pyrimidin-4-yl)hydrazone], the figures for the concentration for half-maximal inhibition (IC50) in test [1] (setting [3]), in test [1] (setting [4]) and in test [2] (setting [5]) were at most 2000 nM, under 2000 nM and over 160 µM, respectively.

On to `Brc1csc2c(NN=Cc3cccnc3)ncnc12` [Compound 180, 3-Pyridinecarboxaldehyde(7-bromothieno[3,2-d]pyrimidin-4-yl)hydrazone], for which the IC50 in test [1] (setting [3]) is at most 2000 nM; in test [1] (setting [4]) it was under 2000 nM; in test [2] (setting [5]) it was over 150 µM.

For `C(=NNc1ncnc2c(-c3ccsc3)csc12)c1cccnc1` [Compound 209], the IC50 in test [1] (setting [6]) is over 148000 nM; in test [2] (setting [5]), over 148 µM.

Consider `Brc1cc2ncnc(NN=Cc3cccnc3)c2s1` [Compound 221, 3-Pyridinecarboxaldehyde(6-bromothieno[3,2-d]pyrimidin-4-yl)hydrazone], for which the figures for the IC50 in test [1] (setting [3]), in test [1] (setting [4]) and in test [2] (setting [5]) were at most 2000 nM, under 2000 nM and over 150 µM, respectively.

As to `COc1ccc(-c2cc3ncnc(NN=Cc4cccs4)c3s2)cc1` [Compound 407, 2-Thiophenecarboxaldehyde(6-(4-methoxyphenyl)thieno[3,2-d]pyrimidin-4-yl)hydrazone], the IC50 in test [2] (setting [5]) is over 136 µM.

In the case of `COc1ccc(-c2sc3c(NN=Cc4cccs4)ncnc3c2C)cc1` [Compound 424, 2-Thiophenecarboxaldehyde(6-(4-methoxyphenyl)-7-methylthieno[3,2-d]pyrimidin-4-yl)hydrazone], the IC50 in test [2] (setting [5]) is over 131 µM.

The molecule `COc1ccc(C=NNc2ncnc3c(C)c(/C=C/c4ccccc4)sc23)cc1O` [Compound 450, 3-Hydroxy-4-methoxybenzaldehyde(7-methyl-6-(trans-2-phenylvinyl)-thieno[3,2-d]pyrimidin-4-yl)hydrazone] yielded an IC50 in test [2] (setting [5]) of over 120 µM.

In test [2] (poly E4Y and 32P-ATP), `COc1cc(C(O)c2sc3c(NN=Cc4cccnc4)ncnc3c2C)cc(OC)c1OC` (stereo not shown) [Compound 479, 3-Pyridinecarboxaldehyde(6-(1-hydroxy-1-[3,4,5-trimethoxyphenyl])methyl-7-methylthieno[3,2-d]pyrimidin-4-yl)hydrazone] displayed an IC50 of over 107 µM.

For the molecule `COc1cc(C(O)c2sc3c(NN=Cc4ccc(C(=O)O)cc4)ncnc3c2C)cc(OC)c1OC` (stereo not shown) [Compound 480, 4-Carboxybenzaldehyde(6-(1-hydroxy-1-[3,4,5-trimethoxyphenyl])methyl-7-methylthieno[3,2-d]pyrimidin-4-yl)hydrazone], the IC50 in test [2] (poly E4Y and 32P-ATP) is over 98.3 µM.

`COc1cc(C(O)c2sc3c(NN=Cc4cccs4)ncnc3c2C)cc(OC)c1OC` (stereo not shown) [Compound 481, 2-Thiophenecarboxaldehyde(6-(1-hydroxy-1-[3,4,5-trimethoxyphenyl])methyl-7-methylthieno[3,2-d]pyrimidin-4-yl)hydrazone] displayed a half-maximal inhibitory concentration (IC50) in test [2] (poly E4Y and 32P-ATP) of over 106 µM.

`COc1ccc(C=NNc2ncnc3c(C)c(C(O)c4cc(OC)c(OC)c(OC)c4)sc23)cc1O` (stereo not shown) [Compound 482, 3-Hydroxy-4-methoxybenzaldehyde(6-(1-hydroxy-1-[3,4,5-trimethoxyphenyl])methyl-7-methylthieno[3,2-d]pyrimidin-4-yl)hydrazone] gave an IC50 in test [2] (poly E4Y and 32P-ATP) of over 97.9 µM.
